Results on 25 compounds are retold here after patent US8114594B2, “Crude biological derivatives competent for nucleic acid detection” (Applied Biosysyems, LLC, priority 2004, dated 2012).

The conditions of data set [1]: cited from earlier work.
In data set [2] the test system is tissue plasminogen activator (t-PA). Description: Monitoring drug treatment: t-PA mRNA by one step real-time RT-PCR from HeLa cell lysate. The conditions noted are these: 24 hours. Type of data set: cell-based, human. On the procedure:
HeLa cells were seeded DME media with 10% FBS in each of three wells in a 12-well tissue culture plate (Nalge Nunc International, Cat. #150628) at 125,000 cells/well. After an overnight incubation, phorbol myristate acetate (PMA) was added to final concentrations of 10, 1 and 0 nM in the growth medium. The cells were incubated at 37° C. for 24 hours. The medium was removed and the cells washed with PBS. The cells were incubated with 0.05% trypsin in 0.53 mM EDTA for 10 minutes at 37° C. to detach the cells. Cells were counted and concentration was determined. Cells were centrifuged at 800×g for 5 minutes. The medium was removed and the cells were washed once with PBS. Each cell pellet was suspended in PBS to obtain a stock solution of 10000 cells/μl. A five-fold serial dilution of the stock solution with PBS was carried out to give 10000, 2000 and 400 cells/0.10 μl of each dilution was added to 90 μl of Buffer at room temperature such that the final cell concentrations in the lysate were 1000, 200 and 40 cells/μl. The samples were gently shaken at room temperature (˜21° C.) for 1 to 2 min. As in EXAMPLE 1, cell lysate of 30% of the final reaction volume was added to a one step real-time RT-PCR reaction with primers and TaqMan probe for tissue plasminogen activator (t-PA) and 18S rRNA (EXAMPLE 8). The t-PA primer and probe sequences were as follows: Forward primer, 5′-[…]-3′ (SEQ ID NO. 34); Reverse primer, 5′-[…]-3′ (SEQ ID NO. 35); TaqMan Probe: 5′-(FAM)-[…]-(TAMRA)-3′ (SEQ ID NO. 36).
In general terms: Real-time PCR tracks product formation cycle by cycle.

For the compound `Cc1cc(C)c(C)c(C(=O)O)c1C` [2,3,5,6-tetramethylbenzoic acid], in data set [1], the pKa is reported as 3.5.
For `Cc1cc(C)c(C(=O)O)c(C)c1` [2,4,6-trimethylbenzoic acid], the pKa in data set [1] is on record as 3.4.
Regarding `CC(C)(N)C(=O)O` [2-amino-2-methylpropionic acid], the pKa in data set [1] is on record as 2.4.
Regarding `CCC(C)C(N)C(=O)O` (stereo not drawn) [2-amino-3-methylpentanoic acid], the pKa in data set [1] is on record as 2.3.
On to `Nc1ccccc1S(=O)(=O)O` [2-aminobenzenesulfonic acid], for which the pKa in data set [1] is given as 2.5.
On to `CCCC(N)C(=O)O` (stereo not drawn) [2-aminopentanoic acid], for which the pKa in data set [1] is on record as 2.3.
As to `CC(C)(C#N)C(=O)O` [2-cyano-2-methylpropionic acid], the pKa in data set [1] is recorded as 2.4.
With `CCC(CC)C(=O)O` [2-ethylbutyric acid], in data set [1], the pKa was 4.8.
As to `O=C(O)c1ccco1` [2-furancarboxylic acid], in data set [1], the pKa is recorded as 3.2.
Take `O=C(O)c1c(O)ccc2ccccc12` [2-hydroxy-1-naphthoic acid]: the pKa in data set [1] was 3.3.
Consider `Nc1cccc(S(=O)(=O)O)c1` [3-aminobenzenesulfonic acid], for which the pKa in data set [1] was 3.7.
Take `O=C(O)c1cccc(Br)c1` [3-bromobenzoic acid]: the pKa in data set [1] is listed as 3.8.
In the case of `CC(C)(C)c1cccc(C(=O)O)c1` [3-tert-butylbenzoic acid], the pKa in data set [1] is reported as 4.2.
As to `Nc1ccc(S(=O)(=O)O)cc1` [4-aminobenzenesulfonic acid], the pKa in data set [1] was 3.2.
With `O=C(O)c1ccc([N+](=O)[O-])cc1` [4-nitrobenzoic acid], the pKa in data set [1] is recorded as 3.4.
As to `CC(=O)N[C@@H](C)C(=O)O` [N-acetylalanine], in data set [1], the pKa is listed as 3.7.
With `CC(=O)NCC(=O)O` [N-acetylglycine], the pKa in data set [1] is listed as 3.7.
Regarding `C[C@H](NC(N)=O)C(=O)O` [N-carbamoylalanine], the pKa in data set [1] was 3.9.
On to `CCC(=O)NCC(=O)O` [N-propionylglycine], for which the pKa in data set [1] is recorded as 3.7.
For the compound `CCCCCCCCCCCCCC(=O)O[C@@H]1[C@@H](C)[C@@]2(O)[C@@H](C=C(CO)C[C@]3(O)C(=O)C(C)=C[C@@H]23)[C@@H]2C(C)(C)[C@]12OC(C)=O` [PMA, phorbol myristate acetate], the “t-PA (fold increase compared to 0 nM PMA)” value is reported as 16 fold in data set [2] (lysate 40 cells/μl, PMA 1 nM); 147 fold in data set [2] (lysate 40 cells/μl, PMA 10 nM); 9 fold in data set [2] (lysate 200 cells/μl, PMA 1 nM); 62 fold in data set [2] (lysate 200 cells/μl, PMA 10 nM); 8 fold in data set [2] (lysate 1000 cells/μl, PMA 1 nM); 39 fold in data set [2] (lysate 1000 cells/μl, PMA 10 nM).
Take `O=C(O)C#CCl` [chloropropynoic acid]: the pKa in data set [1] is 1.85.
As to `N#CCC(=O)O` [cyanoacetic acid], in data set [1], the pKa is recorded as 2.5.
As for `CC[C@H](C)[C@H](N)C(=O)O` [isoleucine], the pKa in data set [1] is 2.3.
For the compound `CC(C)C(C(=O)O)C(=O)O` [isopropylmalonic acid], the pKa in data set [1] is recorded as 2.4.
In the case of `CC(=O)NCCC(=O)O` [β-acetylaminopropionic acid], the pKa in data set [1] is listed as 4.4.

For orientation: pKa means the negative logarithm of the acid dissociation constant.
